# From patent US20230301968A1 (ZEPHAPHARM LTD, priority 2020, published 2023)
# What was measured:
# [1] = molecular target: T1, CYP2C8 (Homo sapiens, UniProt P10632); assay: Cytochrome P450 reaction phenotyping, recombinant CYP2C8; assay type: in vitro ADME; conditions: for t½: 1 µM substrate, recombinant CYP2C8, NADPH
# T1 construct: purchased
# T1 sequence (P10632 1-490): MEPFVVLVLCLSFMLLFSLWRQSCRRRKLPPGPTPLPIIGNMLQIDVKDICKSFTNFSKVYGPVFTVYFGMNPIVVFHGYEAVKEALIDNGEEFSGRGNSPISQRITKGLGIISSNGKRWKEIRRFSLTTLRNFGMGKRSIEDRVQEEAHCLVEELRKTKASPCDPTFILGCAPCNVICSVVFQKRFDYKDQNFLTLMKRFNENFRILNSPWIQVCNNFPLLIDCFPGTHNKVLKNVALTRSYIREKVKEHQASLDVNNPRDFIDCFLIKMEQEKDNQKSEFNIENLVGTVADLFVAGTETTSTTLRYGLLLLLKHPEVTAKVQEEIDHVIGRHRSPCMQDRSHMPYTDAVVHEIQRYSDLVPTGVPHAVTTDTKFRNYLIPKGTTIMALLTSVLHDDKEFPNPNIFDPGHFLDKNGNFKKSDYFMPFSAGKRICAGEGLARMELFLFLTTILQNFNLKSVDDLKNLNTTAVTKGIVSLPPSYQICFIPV
# Experimental: (§1) The amount of test compound remaining at each time point was analysed by LC-MS/MS. Incubations in control recombinant enzymes were also performed to assess non-enzymatic mediated stability.
# (§2) Incubations were also performed using control Bactosomes™ (no cytochrome P450 enzymes present) to reveal any non-enzymatic degradation. Control compounds known to be metabolised specifically by each P450 isoform were included. All incubations were performed singularly for each test compound. […] The reactions were stopped by transferring an aliquot of incubate to quench solvent at the appropriate time points, in a 1:3 ratio. The termination plates were centrifuged at 3,000 rpm for 20 min at 4° C. to precipitate the protein. Following protein precipitation, the sample supernatants were analysed using LC-MS/MS, along with internal standard (1:1 supernatant to internal standard).
# (§3) Following correction for any loss in the incubations with the control Bactosomes™, from a plot of In peak area ratio (compound peak area/internal standard peak area) against time, the gradient of the line was determined. Subsequently, half-life (t½) was calculated using the equations below: […]
# [2] = molecular target: T2, CYP2C19 (Homo sapiens, UniProt P33261); assay: Cytochrome P450 reaction phenotyping, recombinant CYP2C19; assay type: in vitro ADME; conditions: for t½: 1 µM substrate, recombinant CYP2C19, NADPH
# T2 construct: purchased
# T2 sequence (P33261 whole entry): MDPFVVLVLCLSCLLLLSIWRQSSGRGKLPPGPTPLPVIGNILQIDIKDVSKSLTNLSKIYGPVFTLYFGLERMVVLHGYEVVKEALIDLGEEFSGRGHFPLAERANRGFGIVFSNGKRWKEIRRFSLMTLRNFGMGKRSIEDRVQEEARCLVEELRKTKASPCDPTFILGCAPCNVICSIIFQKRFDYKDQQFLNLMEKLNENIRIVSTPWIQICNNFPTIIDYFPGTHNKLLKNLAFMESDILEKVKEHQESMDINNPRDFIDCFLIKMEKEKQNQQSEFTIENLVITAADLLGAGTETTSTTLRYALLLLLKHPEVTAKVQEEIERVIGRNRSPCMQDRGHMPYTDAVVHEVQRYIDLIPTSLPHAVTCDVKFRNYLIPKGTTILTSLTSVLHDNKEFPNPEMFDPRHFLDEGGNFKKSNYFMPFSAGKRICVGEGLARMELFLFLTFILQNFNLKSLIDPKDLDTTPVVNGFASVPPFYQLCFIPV
# Experimental: as §1, §2, §3
# [3] = molecular target: T3, CYP2B6 (Homo sapiens, UniProt P20813); assay: Cytochrome P450 reaction phenotyping, recombinant CYP2B6; assay type: in vitro ADME
# T3 construct: purchased
# T3 sequence (P20813 1-491): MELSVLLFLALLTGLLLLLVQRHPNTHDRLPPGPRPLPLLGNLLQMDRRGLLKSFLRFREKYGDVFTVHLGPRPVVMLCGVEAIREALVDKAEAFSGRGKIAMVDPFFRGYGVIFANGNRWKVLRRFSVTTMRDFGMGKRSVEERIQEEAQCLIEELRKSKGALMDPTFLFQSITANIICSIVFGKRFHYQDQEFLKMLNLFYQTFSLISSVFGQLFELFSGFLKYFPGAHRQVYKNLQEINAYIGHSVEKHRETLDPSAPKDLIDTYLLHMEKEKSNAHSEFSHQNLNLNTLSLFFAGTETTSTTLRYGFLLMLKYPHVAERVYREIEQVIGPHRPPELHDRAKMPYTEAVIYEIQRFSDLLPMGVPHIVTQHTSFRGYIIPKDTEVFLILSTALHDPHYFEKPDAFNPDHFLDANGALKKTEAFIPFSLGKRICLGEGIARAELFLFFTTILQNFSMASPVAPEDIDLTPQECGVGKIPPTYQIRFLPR
# Experimental: as §1, §2, §3
# [4] = molecular target: CYP2C9 (Homo sapiens, UniProt P11712); assay: Cytochrome P450 reaction phenotyping, recombinant CYP2C9; conditions: for t½: 1 µM substrate, recombinant CYP2C9, NADPH
# CYP2C9, sequence (P11712 whole entry): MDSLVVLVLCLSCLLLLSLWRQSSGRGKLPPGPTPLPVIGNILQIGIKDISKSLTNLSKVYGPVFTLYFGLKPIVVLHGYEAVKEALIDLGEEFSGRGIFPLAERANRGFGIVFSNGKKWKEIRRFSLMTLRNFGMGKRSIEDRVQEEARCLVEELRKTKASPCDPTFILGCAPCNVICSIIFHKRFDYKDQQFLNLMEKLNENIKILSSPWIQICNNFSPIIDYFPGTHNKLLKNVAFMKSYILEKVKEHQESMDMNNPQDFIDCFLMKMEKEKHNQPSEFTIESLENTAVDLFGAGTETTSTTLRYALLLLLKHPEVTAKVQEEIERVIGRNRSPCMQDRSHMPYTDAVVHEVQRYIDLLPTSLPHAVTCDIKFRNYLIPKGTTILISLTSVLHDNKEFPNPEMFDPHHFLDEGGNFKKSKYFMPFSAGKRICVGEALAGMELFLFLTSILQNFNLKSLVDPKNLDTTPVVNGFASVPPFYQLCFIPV
# Experimental: as §1, §2, §3
smiles,measurement,setting,value
"COC(=O)Nc1nc2cc(C(=O)c3ccc(F)cc3)ccc2[nH]1 [Flubendazole, methyl N-[6-(4-fluorobenzoyl)-1H-benzimidazol-2-yl]carbamate]",t½,[1],11.5 h
same,t½,[1]; listed as flubendazole,≥ 2.45 h
same,Compound Remaining (% of 0 min),"[1]; CYP2C8, 0 min",100%
same,Compound Remaining (% of 0 min),"[1]; CYP2C8, 5 min",100%
same,Compound Remaining (% of 0 min),"[1]; CYP2C8, 30 min",99.4%
same,Compound Remaining (% of 0 min),"[1]; CYP2C8, 45 min",95.3%
same,t½,[2],13.6 h
same,t½,[2]; listed as flubendazole,≥ 2.45 h
same,Compound Remaining (% of 0 min),"[2]; CYP2C19, 0 min",100%
same,Compound Remaining (% of 0 min),"[2]; CYP2C19, 5 min",99.5%
same,Compound Remaining (% of 0 min),"[2]; CYP2C19, 15 min",97.7%
same,Compound Remaining (% of 0 min),"[2]; CYP2C19, 30 min",98.8%
same,Compound Remaining (% of 0 min),"[2]; CYP2C19, 45 min",95.5%
same,Compound Remaining (% of 0 min),"[3]; CYP2B6, 0 min",100%
same,Compound Remaining (% of 0 min),"[3]; CYP2B6, 5 min",96.5%
same,Compound Remaining (% of 0 min),"[3]; CYP2B6, 15 min",95.8%
same,Compound Remaining (% of 0 min),"[3]; CYP2B6, 30 min",97.8%
same,Compound Remaining (% of 0 min),"[3]; CYP2B6, 45 min",104%
same,half-life at 1 µM,"[3]; human, pH 7.4, 1 µM substrate, recombinant CYP2B6, NADPH, minus value = not metabolised, read-out: t½",≥ 2.45 h
same,t½,[4],95.33 h
same,t½,[4]; listed as flubendazole,≥ 2.45 h
same,Compound Remaining (% of 0 min),"[4]; CYP2C9, 0 min",100%
same,Compound Remaining (% of 0 min),"[4]; CYP2C9, 5 min",97.4%
same,Compound Remaining (% of 0 min),"[4]; CYP2C9, 15 min",101%
same,Compound Remaining (% of 0 min),"[4]; CYP2C9, 30 min",97.9%
same,Compound Remaining (% of 0 min),"[4]; CYP2C9, 45 min",99.0%
